Reference: patent US4107298A, “Antigenically active polypeptide and a process for its preparation” (AB Bonnierforetagen, priority 1976, dated 1978)
No end group written: not given here.

Test system: antibodies specific to TPA (prepared by using natural cancer antigen, CAPA or TPA)
Experiment: hemagglutination inhibition test
Assay type: binding
Conditions: for immunological activity after coupling to inert albumin: coupled to inert bovine albumin, molar ratio about 1:1, by water soluble carbodiimide (EDC)
From the text: The polypeptide prepared according to the foregoing was investigated with regard to its ability to inhibit the hemagglutination reaction between tanned red sheep blood cells labelled with natural cancer antigen and antibodies prepared by using natural cancer antigen (CAPA or TPA). With regard to details concerning this technique reference is had to the above-identified Swedish patent application 73-08917-9 and U.S. Pat. No. 3,960,827. […] Said Unit for specific activity is defined as 1/6 of the quantity active polypeptide required to label 10^9 sheep blood cells so as to be fully agglutinated by a minimum number or amount of antibodies (maximum dilution of antibodies).
In Example 1 as described above the antigenic activity of the synthesized polypeptide was determined in the following manner.
For quantitative determination of the amount of polypeptide 7 mgs of the peptide are dissolved in 1.4 mls of buffer grade serum, i.e. a physiological saline solution containing 2% of inert human serum and buffered to a pH of about 7.5 with a phosphate buffer. Under serial dilution a series of samples of said solution having a decreasing polypeptide concentration is prepared and to each of said samples there is added a pre-determined amount of anti-serum containing antibodies specific to TPA. To each of the resulting samples there is then added, after incubation, a predetermined amount of the polypeptide carried on a particulate carrier, hemagglutination taking place to an extent corresponding to the amount of available antibodies. In parallel there is prepared a corresponding series of control samples containing known decreasing amounts of TPA. The diameters of the hemagglutination depositions of the control samples are then measured in their respective cavities on a serial dilution test plate, and the values of the diameters obtained are plotted against the TPA concentrations, an S-shaped curve being obtained, the intermediate part of which including an inflexion point as a steep inclination. The corresponding curve of the diameter of the depositions from the hemagglutination as a function of the TPA-concentrations is shown in the diagram of the appended drawing, as curve B.
In the same diagram the corresponding curve for the synthesized polypeptide is shown as A, and with knowledge of the specific activity of the TPA the specific activity of the synthesized polypeptide is found to be 0.024 Units per milligram of peptide.

ALLNDELAQYLDLVRALEAANGQLEV [Example 1]
activity lowered (basic environment only, pH 13, same period of time, no cyclohexanedione): about 20% | loss of activity (centrally positioned arginine A0 blocked with cyclohexanedione at pH 13): 99.5% | specific activity (inhibition of hemagglutination between tanned red sheep blood cells labelled with natural cancer antigen and anti-TPA antibodies, compared with the TPA control curve): 0.024 U/mg | activity disappears (treated with iodine at pH 9.5, 100 times excess): 40-50% | activity lost (treated with iodine at pH 9.5, 1000 times excess): about 75% | activity lost (treated with iodine at pH 9.5, excess of about 10000 times in relation to tyrosine content): about 85% | activity of the polypeptide (treated with iodine at pH 9.5, excess of only about 10 times): not effected

ALLNDILAQYLDLVRALEAANGRLEV [Example 25]
immunological activity compared with the polypeptide of Example 1: about equally immunologically active

AQYLDLVRALEAANGELEV [Example 3, Ala Gln Tyr Leu Asp Leu Val Arg Ala Leu Glu Ala Ala Asn Gly Glu Leu Glu Val]
immunological activity compared with the polypeptide of Example 1: about equally immunologically active | immunological activity after coupling to inert albumin: maintained

DDRLAKYLDKVRALEAADG [Example 6, Asp Asp Arg Leu Ala Lys Tyr Leu Asp Lys Val Arg Ala Leu Glu Ala Ala Asp Gly]
immunological activity compared with the polypeptide of Example 1: about equally immunologically active

LNDELAQYLDLVRALEAANGRLEV [Example 4]
immunological activity compared with the polypeptide of Example 1: about equally immunologically active | immunological activity after coupling to inert albumin: maintained

NDILAQYLDLVRALEAANG [Example 5, Asn Asp Ile Leu Ala Gln Tyr Leu Asp Leu Val Arg Ala Leu Glu Ala Ala Asn Gly]
immunological activity compared with the polypeptide of Example 1: about equally immunologically active

TDLDDRLAKYLDKVRALEAADGELEV [Example 2]
immunological activity compared with the polypeptide of Example 1: about equally immunologically active
